pKd: −log10 of the molar value. Where no end group is shown, it is not given here.
Assays:
MDA-MB-231 cells = test: Tumor exosome secretion, Mortalin scanning peptides (Figure 5B), MDA-MB-231; type: cell-based, human; conditions: 50 ng / 200 μL peptide, transfected, 48 h, N-Rh-PE fluorescence in media; SMRmut = 100; mean of three independent experiments
Protocol: (§1) Figure 5 Effects of Mortalin-derived peptides on inhibition of exNef and tumor exosome secretion. (A) Jurkat T cells were co-transfected with 250 ng of wild-type Nef-GFP plasmid and 50 ng of Mortalin-derived scanning peptides (#56–#67), including SMRwt and SMRmut as positive and negative controls. After 48 h, GFP fluorescence in culture media was measured to assess exNef secretion. Data represent mean ± SD from three independent experiments. Statistical significance was determined using a two-sample t-test assuming equal variances. (B) MDA-MB-231 cells were transfected with 50 ng of Mortalin-derived scanning peptides (#56–#67), including SMRwt and SMRmut controls. Cells were labeled with N-Rh-PE and incubated for 48 h. N-Rh-PE fluorescence in culture media was measured to assess exosome secretion. Data represent mean ± SD from three independent experiments. Statistical significance was determined using a two-sample t-test assuming equal variances. TEXT PRINTED IN THE PICTURE: (A) #56: Jurkat GFP (%): 117.84 (50 ng / 200 μL) | (A) #57: Jurkat GFP (%): 96.69 (50 ng / 200 μL) | (A) #58: Jurkat GFP (%): 91.89 (50 ng / 200 μL) | (A) #59: Jurkat GFP (%): 95.49 (50 ng / 200 μL) | (A) #60: Jurkat GFP (%): 98.25 (50 ng / 200 μL) | (A) #61: Jurkat GFP (%): 0.65 (50 ng / 200 μL) | (A) #62: Jurkat GFP (%): 0.51 (50 ng / 200 μL) | (A) #63: Jurkat GFP (%): 98.02 (50 ng / 200 μL) | (A) #64: Jurkat GFP (%): 95.37 (50 ng / 200 μL) | (A) #65: Jurkat GFP (%): 96.34 (50 ng / 200 μL) | (A) #66: Jurkat GFP (%): 92.28 (50 ng / 200 μL) | (A) #67: Jurkat GFP (%): 99.56 (50 ng / 200 μL) | (A) SMRwt: Jurkat GFP (%): 0.51 (50 ng / 200 μL) | (A) SMRmut: Jurkat GFP (%): 100 (50 ng / 200 μL) | (B) #56: MDA-MB-231 N-Rh-PE (%): 66.31 (50 ng / 200 μL) | (B) #57: MDA-MB-231 N-Rh-PE (%): 79.73 (50 ng / 200 μL) | (B) #58: MDA-MB-231 N-Rh-PE (%): 68.11 (50 ng / 200 μL) | (B) #59: MDA-MB-231 N-Rh-PE (%): 67.81 (50 ng / 200 μL) | (B) #60: MDA-MB-231 N-Rh-PE (%): 72.32 (50 ng / 200 μL) | (B) #61: MDA-MB-231 N-Rh-PE (%): 7.53 (50 ng / 200 μL) | (B) #62: MDA-MB-231 N-Rh-PE (%): 5.36 (50 ng / 200 μL) | (B) #63: MDA-MB-231 N-Rh-PE (%): 75.39 (50 ng / 200 μL) | (B) #64: MDA-MB-231 N-Rh-PE (%): 73.49 (50 ng / 200 μL) | (B) #65: MDA-MB-231 N-Rh-PE (%): 81.65 (50 ng / 200 μL) | (B) #66: MDA-MB-231 N-Rh-PE (%): 81.79 (50 ng / 200 μL) | (B) #67: MDA-MB-231 N-Rh-PE (%): 89.82 (50 ng / 200 μL) | (B) SMRwt: MDA-MB-231 N-Rh-PE (%): 6.11 (50 ng / 200 μL) | (B) SMRmut: MDA-MB-231 N-Rh-PE (%): 100 (50 ng / 200 μL)
To assess the effect of Mortalin-derived peptides on tumor exosome secretion, MDA-MB-231 breast cancer cells were transfected with the same panel of scanning peptides and labeled with N-Rh-PE to track exosome release. Following incubation, N-Rh-PE fluorescence in the culture media was measured as a proxy for extracellular exosome levels. SMRwt and SMRmut peptides were again used as controls. […] Statistical analysis confirmed significant differences: SMRmut vs. #61 (p < 7.20 × 10^−7), SMRmut vs. #62 (p < 5.70 × 10^−7), and SMRmut vs. SMRwt (p < 5.96 × 10^−7).

Jurkat T cells = test: exNef secretion, Mortalin scanning peptides (Figure 5A), Jurkat T cells; type: cell-based; conditions: 50 ng / 200 μL peptide, 250 ng Nef-GFP plasmid, 48 h, GFP fluorescence in media; SMRmut = 100; mean of three independent experiments
Protocol: To determine whether Mortalin-derived peptides can inhibit the secretion of extracellular Nef (exNef), Jurkat T cells were co-transfected with wild-type Nef-GFP and various scanning peptides derived from the substrate-binding domain of Mortalin (#56–#67). SMRwt and SMRmut peptides were included as positive and negative controls, respectively. After 48 h of incubation, GFP fluorescence in the culture media was measured as a proxy for exNef secretion.
as §1
To identify peptide sequences within Mortalin that modulate extracellular vesicle (EV) secretion, a panel of scanning peptides was synthesized and tested in Jurkat T cells. The peptides, listed in Table 1, were custom-synthesized with an average purity of 75% and used in transfection assays to evaluate their impact on EV release. Jurkat T cells (3 × 10^5) were co-transfected with 50 ng of individual Mortalin peptides […] 250 ng of wild-type Nef-GFP plasmid using Chariot™ transfection reagent. Transfection efficiency was confirmed by fluorescence microscopy after 48 h. EV secretion was assessed by measuring GFP fluorescence in the culture media, and statistical analysis was performed using unpaired two-factor t-tests (p < 0.05). Panel of Mortalin scanning peptides developed and tested for their effect EV secretion and Table S2. Mortalin Scanning Peptides Used in Transfection Assays, see the Supplementary Information. […]

Nef protein = Nef protein (Human immunodeficiency virus type 1 group M subtype B, UniProt P03404); test: SPR binding of Mortalin peptides to immobilized Nef; design: species or system HIV-1; conditions: for kon: pH 7.4, read-out: ka (Nef)
Protocol: Figure 8 depicts the SPR results for Mortalin peptides binding to Nef. The Nef protein was immobilized as a ligand on the chip surface, and the peptides were used as analytes to flow into the buffer solution.
(§2) SPR experiments were conducted using a Biacore T200 instrument (Cytiva, Marlborough, MA, USA). CM5 sensor chips (Cytiva) were used to immobilize proteins and run subsequent binding assays at 25 °C. To investigate the direct binding of Nef and SMR peptides to Vimentin and Mortalin and SMR competition studies, both proteins were immobilized as ligands on the active flow cells (FCs) using standard amine coupling chemistry. One reference FC was prepared using the same surface chemistry, and no proteins were immobilized onto this reference FC. Vimentin was immobilized to a level of ~2500 RU to 7200 RU in the presence of 4 mM of HCl and Mortalin to a level of ~11,900 RU to 13,200 RU in the presence of 10 mM of sodium acetate buffer at pH 4.5. Analytes were then injected (Nef, SMR peptides, Mortalin peptides, and mixtures of […]). One 20 s pulse of 1:500 H3PO4 (H3PO4:ddH2O) was injected for surface regeneration. To investigate the direct binding of Mortalin peptides to Nef, Nef was immobilized as a ligand to ~450 RU using thiol coupling chemistry. A reference FC was created using a method similar to the one above. Mortalin peptides were then injected as analytes. One 20 s pulse of 1 M NaCl was injected for surface regeneration. HBS-P (10 mM Hepes, pH 7.4; 150 mM NaCl; 0.05% surfactant P20) was used as the immobilization running buffer during the immobilization of all ligands. HBS-P was also used to dilute analytes and as a running buffer during all analyte–ligand binding assays. SPR data used for analysis was both blank (signals due to HBS-P only) and reference-subtracted (signals corresponding to reference FCs). Sensorgrams recorded for kinetics analyses were fitted to a 1:1 binding model using the Biacore T200 evaluation software version 3.2.1. GraphPad Prism version 10.4.0 was used to plot all graphs.

MCF-7 BC cells = test: Exosome secretion by N-Rh-PE (Figure 4B), MCF-7; type: cell-based, human; conditions: 100 ng/mL peptide, 24 h, no transfection, N-Rh-PE fluorescence, three independent experiments
Protocol: (§3) Figure 4 Effects of SMR, Mortalin, and Vimentin peptides on tumor cell exosome secretion in MDA-MB-231 and MCF-7 breast cancer cells. MDA-MB-231 and MCF-7 BC cells (200 µL, 1 × 10^4 cells/mL) were seeded into a 96-well plate and treated with 100 ng/mL of either wild-type (wt) or mutant (mut) peptides of SMR, Mortalin, or Vimentin. Treatments were performed in RPMI-1640 medium without transfection, and cells were incubated at 37 °C for 24 h. The cells were then treated with 0.5 µM/mL of N-Rh-PE, incubated at 4 °C for 1 h, and washed with PBS. Fresh medium was also added. The cultures were incubated at 37 °C for an additional 24 h. N-Rh-PE refers to N-(Lissamine Rhodamine B sulfonyl) phosphatidyl-ethanolamine, a fluorescent lipid dye commonly used to label membranes and track vesicle trafficking. […] Exosome secretion was assessed by measuring the amount of N-Rh-PE, which corresponds to the number of exosomes released into the extracellular medium. Bar graphs show the relative exosome release level. Data represent the mean ± SD of three independent experiments.

MDA-MB-231 BC cells = test: Exosome secretion by N-Rh-PE (Figure 4A), MDA-MB-231; type: cell-based, human; conditions: 100 ng/mL peptide, 24 h, no transfection, N-Rh-PE fluorescence, three independent experiments
Protocol: as §3

[1] = target: T1, Recombinant Human GRP75/HSPA9B/Mortalin His Protein (Homo sapiens, UniProt P38646); test: biochemical; type: binding
T1 construct: His; purchased Novus Biologicals, LLC/R&D Systems NBC1-18380
T1 sequence (P38646 47-679): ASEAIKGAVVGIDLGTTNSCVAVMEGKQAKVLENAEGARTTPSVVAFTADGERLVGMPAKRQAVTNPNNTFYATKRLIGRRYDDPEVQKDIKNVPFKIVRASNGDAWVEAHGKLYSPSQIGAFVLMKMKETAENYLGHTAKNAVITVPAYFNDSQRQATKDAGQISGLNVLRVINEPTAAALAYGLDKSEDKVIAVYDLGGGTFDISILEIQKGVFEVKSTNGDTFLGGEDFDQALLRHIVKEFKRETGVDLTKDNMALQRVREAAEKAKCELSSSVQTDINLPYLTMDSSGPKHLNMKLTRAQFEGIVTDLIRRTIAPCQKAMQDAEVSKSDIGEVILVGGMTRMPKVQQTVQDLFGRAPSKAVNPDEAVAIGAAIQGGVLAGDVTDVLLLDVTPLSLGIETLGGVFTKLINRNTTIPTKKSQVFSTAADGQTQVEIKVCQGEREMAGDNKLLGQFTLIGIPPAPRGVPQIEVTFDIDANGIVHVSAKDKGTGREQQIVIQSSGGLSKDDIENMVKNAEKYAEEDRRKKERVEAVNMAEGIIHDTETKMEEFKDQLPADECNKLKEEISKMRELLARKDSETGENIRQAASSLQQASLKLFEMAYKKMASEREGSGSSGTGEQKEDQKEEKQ
Description: (§4) We conducted SPR experiments to characterize and quantify the direct binding interactions between Nef and SMR peptides (the analytes) and the target proteins, Vimentin and Mortalin (the immobilized ligands). We did so by injecting the analytes at various concentrations over the chip surface with the immobilized ligands.
(§5) Recombinant Human Vimentin Protein, CF (catalog # 2105-VI-100), Recombinant Human GRP75/HSPA9B/Mortalin His Protein (catalog # NBC1-18380), and Recombinant Human HSPA8/HSC71/Hsc70 His Protein (Catalog # NBPI-30278) were purchased from Novus Biologicals, LLC/R&D Systems, Centennial, CO, USA. These proteins were used for SPR.
as §2

[2] = target: T2, Recombinant Human Vimentin Protein (Homo sapiens, UniProt P08670); test: biochemical; type: binding
T2 construct: purchased Novus Biologicals, LLC/R&D Systems 2105-VI-100
T2 sequence (P08670 whole entry): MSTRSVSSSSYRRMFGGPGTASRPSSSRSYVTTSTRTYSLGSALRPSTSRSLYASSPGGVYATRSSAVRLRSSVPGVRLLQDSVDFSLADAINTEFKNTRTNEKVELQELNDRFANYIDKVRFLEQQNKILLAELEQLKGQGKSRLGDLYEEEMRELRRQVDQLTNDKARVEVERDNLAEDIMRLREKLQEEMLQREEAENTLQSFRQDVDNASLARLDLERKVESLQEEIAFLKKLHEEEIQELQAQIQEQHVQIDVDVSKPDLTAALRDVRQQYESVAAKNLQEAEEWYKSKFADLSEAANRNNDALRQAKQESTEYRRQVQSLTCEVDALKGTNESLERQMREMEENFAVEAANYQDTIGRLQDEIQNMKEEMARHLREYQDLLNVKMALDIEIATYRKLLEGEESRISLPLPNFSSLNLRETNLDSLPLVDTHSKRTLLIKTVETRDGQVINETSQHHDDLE
Description: as §4, §5, §2

Substance | MDA-MB-231 N-Rh-PE (exosome secretion) (MDA-MB-231 cells) [%] | Jurkat GFP (exNef secretion) (Jurkat T cells) [%] | further results
AVNMAEGIIHDTETKMEEFK [#59, Mortalin scanning peptide 59] | 67.81 | 95.49 | –
AYKKMASEREGSGSSGTGEQ [#66, Mortalin scanning peptide 66] | 81.79 | 92.28 | –
DTETKMEEFKDQLPADECNK [#60, Mortalin scanning peptide 60] | 72.32 | 98.25 | –
EDRRKKERVEAVNMAEGIIH [#58, Mortalin scanning peptide 58] | 68.11 | 91.89 | –
ENIRQAASSLQOASLKLFEM [#64, Mortalin scanning peptide 64] | 73.49 | 95.37 | –
GGLSKDDIENMVKNAEKYAE [#56] | – | – | pKd (Nef protein): 4.11; kon (Nef protein): 370 M⁻¹ s⁻¹
GSGSSGTGEQKEDQKEEKQ [#67, Mortalin scanning peptide 67] | 89.82 | 99.56 | –
LKEEISKMRELLARKDSETG [#62] | – | – | pKd (Nef protein): 5.72; kon (Nef protein): 1970 M⁻¹ s⁻¹
LLARKDSETGENIRQAASSL [#63, Mortalin scanning peptide 63] | 75.39 | 98.02 | –
LYEEEMRE [VIM-wt, Vimentin-wt peptide (LYEEEMRE)] | – | – | exosome release vs untreated, in words (MCF-7 BC cells): significantly decreased exosome release; p, UT vs. peptide, exosome release (MCF-7 BC cells): < 0.00005; exosome release vs untreated, in words (MDA-MB-231 BC cells): significantly decreased exosome release; p, UT vs. peptide, exosome release (MDA-MB-231 BC cells): < 0.00005
MVKNAEKYAEEDRRKKERVE [#57, Mortalin scanning peptide 57] | 79.73 | 96.69 | –
QOASLKLFEMAYKKMASERE [#65, Mortalin scanning peptide 65] | 81.65 | 96.34 | –
VGFPV [SMRwt, ^66Val-Gly-Phe-Pro-Val^70] | – | – | pKd [1]: 4.68; kon ([1]; pH 7.4, read-out: ka (Mortalin)): 671 M⁻¹ s⁻¹; pKd [2]: 5.18; kon ([2]; pH 7.4, read-out: ka (Vimentin)): 6410 M⁻¹ s⁻¹

Reference: article PMC12469269, “Investigating SMR Peptide Interactions with Breast Cancer-Associated Proteins” (International Journal of Molecular Sciences, 2025)
